Measured values from publication PMC8507260, “A2E-induced inflammation and angiogenesis in RPE cells in vitro are modulated by PPAR-α, -β/δ, -γ, and RXR antagonists and by norbixin” (Aging (Albany NY), 2021).

How the values were obtained:
[1] = system: MMP9; experiment: MMP9 mRNA expression by quantitative RT-PCR in porcine RPE cells; format: cell-based
Method: (§1) Pig eyes were obtained from a local slaughterhouse and transported to the laboratory in ice-cold Ringer solution. After removal of the anterior segment of the eye, the vitreous and neural retina was separated from the RPE and removed. The eyecup was washed twice with phosphate buffer saline (PBS), filled with trypsin (0.25% in PBS) and incubated at 37°C for 1.5 h. RPE cells were harvested by gently pipetting, centrifuged to remove trypsin and re-suspended in Dulbecco’s Modified Eagle Medium (DMEM) supplemented with 20% (v/v) foetal-calf serum (DMEM20%FCS) and 0.1% gentamycin. Cells were seeded into 60 mm diameter Petri dishes, cultured in an atmosphere of 5% CO2/95% air at 37°C, and supplied with fresh medium after 24 hours and 4 days in vitro. For experiments aimed at measuring mRNA or protein expression in RPE, cells were trypsinized after one week in culture and transferred to 24-well or 6-well plates at a density of 1.5 × 10^5 cells/cm^2 in DMEM2%FCS. Norbixin or agonists were added to the medium 24 h after seeding, and antagonists were added to the medium 24 h later. A2E treatment was performed during 19 h before cellular sample preparation. […]
Total RNA was extracted using the NucleoSpin® RNA kit according to manufacturer’s instructions. […] The relative mRNA expression was calculated using the comparative threshold method (Ct-method) with GAPDH for normalization. […]

[2] = system: AP-1; experiment: AP-1 transactivation, luciferase reporter in porcine RPE cells; format: cell-based
Method: (§2) Pig eyes were obtained from a local slaughterhouse and transported to the laboratory in ice-cold Ringer solution. After removal of the anterior segment of the eye, the vitreous and neural retina was separated from the RPE and removed. The eyecup was washed twice with phosphate buffer saline (PBS), filled with trypsin (0.25% in PBS) and incubated at 37°C for 1.5 h. RPE cells were harvested by gently pipetting, centrifuged to remove trypsin and re-suspended in Dulbecco’s Modified Eagle Medium (DMEM) supplemented with 20% (v/v) foetal-calf serum (DMEM20%FCS) and 0.1% gentamycin. Cells were seeded into 60 mm diameter Petri dishes, cultured in an atmosphere of 5% CO2/95% air at 37°C, and supplied with fresh medium after 24 hours and 4 days in vitro. For experiments aimed at measuring mRNA or protein expression in RPE, cells were trypsinized after one week in culture and transferred to 24-well or 6-well plates at a density of 1.5 × 10^5 cells/cm^2 in DMEM2%FCS. Norbixin or agonists were added to the medium 24 h after seeding, and antagonists were added to the medium 24 h later. A2E treatment was performed during 19 h before cellular sample preparation. All the drugs used in these experiments were prepared as stock solutions in DMSO.
After one week in culture, cells were trypsinized and transferred to a 96-well plate at a density of 6 × 10^4 cells/cm^2 in DMEM2%FCS. The next day, cells were transfected using the Cignal Reporter Assay Kits for PPAR, RXR, AP-1 and NF-κB, according to the manufacturer’s specifications. To measure the specific activation of PPAR isoforms, cells were also co-transfected with PPAR-α, PPAR-β/δ or PPAR-γ expression vectors. […] Luciferase activity was measured the next day using the Dual-Luciferase Reporter Assay System. […] Firefly: Renilla activity ratios were calculated for each condition and ratios from transcription factor-responsive reporter transfections were divided by ratios from negative control transfections to obtain relative luciferase unit, as described by the manufacturer. […]

[3] = system: AKT; experiment: AKT phosphorylation by western blot in primary porcine RPE cells; format: cell-based
Method: as §1, with “DMEM2%FCS.” for “DMEM2%FCS. Norbixin or agonists were added to the medium 24 h after seeding, and antagonists were added to the medium 24 h later. A2E treatment was performed during 19 h before cellular sample preparation.”
RPE samples were lysed in 20 mM Tris-HCl, 150 mM NaCl, 1 mM EDTA, 1% NP-40, pH 7.5 buffer containing a cocktail of protease and phosphatase inhibitors. […] The signal was developed using enhanced chemiluminescence reagents (ECL) prime detection kit, quantified by densitometry using Bio1D (Vilber Lourmat, Germany) and normalized by GAPDH levels. […]

[4] = biological target: T1, RXR-α (Homo sapiens, UniProt P19793); experiment: Competition binding to RXR-α against [3H]9-cis-retinoic acid (Eurofins Cerep); conditions: for IC50 / Kd: competition with [3H]9-cis-retinoic acid
T1 construct: Eurofins Cerep (contract laboratory that ran the assay)
T1 sequence (P19793 1-462): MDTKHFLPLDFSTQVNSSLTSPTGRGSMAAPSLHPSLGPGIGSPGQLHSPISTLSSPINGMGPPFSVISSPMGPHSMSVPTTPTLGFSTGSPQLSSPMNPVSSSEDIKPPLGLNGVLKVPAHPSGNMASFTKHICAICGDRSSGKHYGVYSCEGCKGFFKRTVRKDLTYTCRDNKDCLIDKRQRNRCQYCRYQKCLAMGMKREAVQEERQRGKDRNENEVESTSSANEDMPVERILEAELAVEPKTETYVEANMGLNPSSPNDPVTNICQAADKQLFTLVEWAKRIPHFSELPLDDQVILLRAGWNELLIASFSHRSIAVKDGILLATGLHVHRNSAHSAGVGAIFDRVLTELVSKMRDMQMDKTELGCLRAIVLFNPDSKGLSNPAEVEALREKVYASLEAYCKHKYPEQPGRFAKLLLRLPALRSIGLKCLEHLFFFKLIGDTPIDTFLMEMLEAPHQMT
Method: To confirm this hypothesis, we tested by competition experiments whether A2E and norbixin could bind to RXR-α. […] In similar transactivation experiments, we tested the activity of norbixin alone or added to A2E on RXR transactivation.
Binding studies of A2E and norbixin to RXR-α and PPAR-α and γ were performed in vitro by an external laboratory (Eurofins Cerep, Celle L’Evescault, France) through competition experiments between A2E or norbixin and [^3H]9-cis-retinoic acid as the natural ligand of RXR-α, [^3H]GW7647 an agonist of PPAR-α and [^3H]Rosiglitazone an agonist of PPAR-γ.

[5] = system: NF-κB; experiment: NF-κB transactivation, luciferase reporter in porcine RPE cells; format: cell-based; conditions: A2E 20 μM, T007907 10 μM
Method: as §2
After one week in culture, cells were trypsinized and transferred to a 96-well plate at a density of 6 × 10^4 cells/cm^2 in DMEM2%FCS. The next day, cells were transfected using the Cignal Reporter Assay Kits for PPAR, RXR, AP-1 and NF-κB, according to the manufacturer’s specifications. To measure the specific activation of PPAR isoforms, cells were also co-transfected with PPAR-α, PPAR-β/δ or PPAR-γ expression vectors. Transfection was performed with Lipofectamine and Plus Reagent in serum-free medium. 3 h after the transfection, the medium was replaced and treatments with the molecules to assay were performed. Luciferase activity was measured the next day using the Dual-Luciferase Reporter Assay System. The measurements were performed with a luminometer (Infinite M1000 from Tecan, Mannedorf, Switzerland). Firefly: Renilla activity ratios were calculated for each condition and ratios from transcription factor-responsive reporter transfections were divided by ratios from negative control transfections to obtain relative luciferase unit, as described by the manufacturer. At least 3 independent transfections were performed in triplicate for each condition.

## CC(C=CC1=C(C)CCCC1(C)C)=CC=CC(C)=Cc1cc(C=CC=C(C)C=CC2=C(C)CCCC2(C)C)cc[n+]1CCO [A2E, N-retinylidene-N-retinylethanolamine]
[1]; A2E 30 μM vs DMSO control
  effect of the compound alone on MMP9 mRNA expression: reduced the expression
[2]; A2E 20 μM vs DMSO control
  effect of the compound alone on AP-1 transactivation: induced transactivation of AP-1
[3]; A2E 30 μM vs DMSO control
  effect of the compound alone on AKT phosphorylation: induced the phosphorylation
[4]
  IC50: 6.1 µM
  Kd: 4.3 µM
[4]; ratio of KDs
  binding affinity of A2E for RXR-α relative to norbixin (higher): 10 fold
[5]; vs DMSO control
  effect of the compound alone on NF-κB transactivation: induces the transactivation

## CC(/C=C/C=C(C)/C=C/C(=O)O)=C\C=C\C=C(C)\C=C\C=C(C)\C=C\C(=O)O (stereo in doubt) [norbixin, 9’-cis-norbixin]
[1]; NBX 20 μM, A2E 30 μM
  effect on MMP9 mRNA expression in the absence or presence of A2E: slightly, but significantly, increased
[2]; A2E 20 μM, NBX 20 μM, HX531 5 μM
  inhibition of AP-1 transactivation induced by A2E: 82%
[3]; NBX 20 μM + A2E 30 μM
  effect on the increase of AKT phosphorylation induced by A2E: abrogated completely
[4]
  IC50: 65 µM
  Kd: 46 µM
[5]; NBX 20 μM, HX531 5 μM
  inhibition of NF-κB transactivation induced by A2E: 73%
